Entries after “also recorded” stand apart in the source; their conditions may differ. Like-named read-outs stand apart in the source and are kept apart here.
Columns and labels:
786-0 = experiment: NCI 60 cell line screen (SRB), Renal Cancer; type: cell-based
RPMI-8226 = experiment: NCI 60 cell line screen (SRB), Leukemia; type: cell-based
MOLT-4 = test system: MOLT-4
Experimental: (§1) The screening assay is performed on 96-well microtitre plates. Relatively high initial inoculation densities are used, in order to permit measurement of “time-zero” values and to enhance the screen's ability to detect and provide some differentiation between antiproliferative and cytotoxic response parameters. […] The inoculated microtitre plates are pre-incubated for 24 hours at 37θC prior to drug additions. The five drug dilutions tested routinely range from 10^−4 to 10^−8 molar. Higher or lower concentration ranges may be selected on a nonroutine basis if appropriate solubility and/or prior biological information or other screening data so dictate. Duplicate wells are prepared for all concentrations, (concentration is often denoted by placing brackets around a number); “time-zero” and “no drug” controls are also provided for each test. The minimum amount of compound required for a one-time evaluation in the routine screen can be calculated from the knowledge that each test requires a total of approximately 40 ml (0.04 liter) of cell culture medium containing the highest desired drug concentration. Thus, the amount (grams) of sample required (assuming an upper test concentration limit of 10^−4 M) is: molecular weight of compound×[…]. After a 48 hour incubation (37θC) with the test compound, the cells are fixed in situ to the bottoms of the microtitre wells by addition of 50 ul of either 50% trichloroacetic acid (for adherent cell lines) or 80% trichloroacetic acid (for settled cell suspension lines), followed by incubation for 60 minutes at 4θC. The cellular protein in each well is assayed using a sulforhodamine B (SRB) stain procedure. Briefly, after discarding the supernatants, the microtitre plates are washed 5 times with deionized water and air-dried. One hundred microliters of SRB solution (0.4% w/v in 1% acetic acid) is added to each microtitre well and incubated for 10 minutes at room temperature. Unbound SRB is removed by washing 5 times with 1 % acetic acid. The plates are air-dried, the bound stain is solubilized with Tris buffer, and the optical densities read at 515 nm. SRB is a bright pink anionic dye which, in dilute acetic acid, binds electrostatically to the basic amino acids of TCA-fixed cells. Cryopreserved master stocks of all the lines are maintained, and cultures used for screening are replaced from the master stock after no more than twenty passages in the screening laboratory. The cell line panel consists of 60 lines, organized into nine, disease-related subpanels including leukemia, non-small-cell lung cancer, colon, CNS, melanoma, ovarian, renal, prostate and breast cancers.
(§2) The response parameters G150 and LC50 are interpolated values representing the concentrations at which the percentage growth (PG) is +50 and −50, respectively:
(§3) GI50 is the concentration for which the PG=+50. At this value the increase from time tzero, in the number or mass of cells in the test well is only 50% as much as the corresponding increase in the control well during this period of the experiment, see Table II. A drug effect of this intensity is interpreted as primary growth inhibition.
(§4) TGI is the concentration for which PG=0. At this value the number or mass of cells in the well at the end of the experiment equals the number or mass of cells in the well at time tzero, see Table III. A drug effect of this intensity is regarded as cytostasis.
(§5) LC50 is the concentration for which the PG=−50. At this value, the number or mass of cells in the test well at the end of the experiment is half that at time tzero, see Table IV. This is interpreted as cytotoxicity.

CAKI-1 = experiment: NCI 60 cell line screen (SRB), Renal Cancer; type: cell-based
OVCAR-8 = experiment: NCI 60 cell line screen (SRB), Ovarian Cancer; type: cell-based
KM12 = experiment: NCI 60 cell line screen (SRB), Colon Cancer; type: cell-based
60 cell line panel = experiment: NCI 60 cell line screen (SRB), whole panel; type: cell-based
Experimental: as §1, §2, §3, §4, §5

NCI-H226 = experiment: NCI 60 cell line screen (SRB), Non-Small Cell Lung Cancer; type: cell-based
OVCAR-5 = experiment: NCI 60 cell line screen (SRB), Ovarian Cancer; type: cell-based
SK-MEL2 = experiment: NCI 60 cell line screen (SRB), Melanoma; type: cell-based
SNB-75 = experiment: NCI 60 cell line screen (SRB), CNS Cancer; type: cell-based
HL-60(TB) = experiment: NCI 60 cell line screen (SRB), Leukemia; type: cell-based
LOX IMVI = experiment: NCI 60 cell line screen (SRB), Melanoma; type: cell-based
UACC-62 = experiment: NCI 60 cell line screen (SRB), Melanoma; type: cell-based
NCI-H522 = experiment: NCI 60 cell line screen (SRB), Non-Small Cell Lung Cancer; type: cell-based
UACC-257 = experiment: NCI 60 cell line screen (SRB), Melanoma; type: cell-based
IGROVI = experiment: NCI 60 cell line screen (SRB), Ovarian Cancer; type: cell-based
HT29 = experiment: NCI 60 cell line screen (SRB), Colon Cancer; type: cell-based
HCT-116 = experiment: NCI 60 cell line screen (SRB), Colon Cancer; type: cell-based

In the case of CC1=C(C=Cc2cccc(C=CC3=C(C)C4CCC(C)C5CCC6(C)OOC45C(O3)O6)c2)OC2OC3(C)CCC4C(C)CCC1C24OO3 (stereo not drawn) [VII-f], the Log10TGI (786-0; PG=0) is reported as >−4.00 log10M, the Log10GI50 (786-0; PG=+50) is reported as −5.40 log10M and the Log10GI50 (786-0; Table IV (LC50, PG=−50)) is reported as >−4.00 log10M. For the same compound, the Log10TGI (RPMI-8226; PG=0) was −6.21 log10M, the Log10GI50 (RPMI-8226; PG=+50) was −6.21 log10M and the Log10GI50 (RPMI-8226; Table IV (LC50, PG=−50)) was >−4.00 log10M. The “drug concentration for cytotoxicity (percentage growth −50)” value (MOLT-4) was “greater than 10^−4 M”, the “drug concentration for cytostasis (percentage growth 0)” value (MOLT-4; MOLT-4, FIGS. 6a-6e) was “approximately 10^−4 M” and the “drug concentration for primary growth inhibition (percentage growth +50)” value (MOLT-4; MOLT-4, FIGS. 6a-6e) was “greater than 10^−6 molar”. For the same compound, the Log10GI50 (MOLT-4; MOLT-4, PG=+50) was −6.23 log10M, the Log10TGI (MOLT-4; MOLT−4, PG=0) was −6.23 log10M and the Log10GI50 (MOLT-4; Table IV (LC50, PG=−50), MOLT−4) was >−4.00 log10M. For the same compound, the Log10TGI (CAKI-1; PG=0) was >−4.00 log10M, the Log10GI50 (CAKI-1; PG=+50) was −5.17 log10M and the Log10GI50 (CAKI-1; Table IV (LC50, PG=−50)) was >−4.00 log10M. The Log10TGI (OVCAR-8; PG=0) was −4.21 log10M, the Log10GI50 (OVCAR-8; PG=+50) was −5.57 log10M and the Log10GI50 (OVCAR-8; Table IV (LC50, PG=−50)) was >−4.00 log10M. For the same compound, the Log10TGI (KM12; PG=0) was >−4.00 log10M, the Log10GI50 (KM12; PG=+50) was −6.23 log10M and the Log10GI50 (KM12; Table IV (LC50, PG=−50)) was >−4.00 log10M. For the same compound, the “MG MID of Log10GI50 (Table IV)” value (60 cell line panel; Table IV (LC50), mean over the panel) was −4.23 log10M, the “Delta of Log10GI50 (Table IV)” value (60 cell line panel; Table IV (LC50), panel summary) was 1.70 and the “Range of Log10GI50 (Table IV)” value (60 cell line panel; Table IV (LC50), panel summary) was 1.93. For the same compound, the “potency in words, compared with artemisinin and paclitaxel” value (60 cell line panel; Tables II, III and IV) was “in most instances are as potent and in some instances more potent than paclitaxel; also recorded: more potent than artemisinin and equivalent to and in many instances higher in potency than paclitaxel”, the “MG MID of Log10GI50” value (60 cell line panel; mean over the panel) was −5.73 log10M and the “MG MID of Log10TGI” value (60 cell line panel; mean over the panel) was −4.23 log10M. The “Delta of Log10GI50” value (60 cell line panel; panel summary) was 0.98, the “Delta of Log10TGI” value (60 cell line panel; panel summary) was 1.70 and the “Range of Log10GI50” value (60 cell line panel; panel summary) was 2.71. For the same compound, the “Range of Log10TGI” value (60 cell line panel; panel summary) was 1.93, the Log10TGI (NCI-H226; PG=0) was >−4.00 log10M and the Log10GI50 (NCI-H226; PG=+50) was −4.61 log10M. For the same compound, the Log10GI50 (NCI-H226; Table IV (LC50, PG=−50)) was >−4.00 log10M, the Log10TGI (OVCAR-5; PG=0) was >−4.00 log10M and the Log10GI50 (OVCAR-5; PG=+50) was −6.04 log10M. For the same compound, the Log10GI50 (OVCAR-5; Table IV (LC50, PG=−50)) was >−4.00 log10M, the Log10TGI (SK-MEL2; PG=0) was −4.26 log10M and the “Log10 GI50 or LC50 (per conditions)” value (SK-MEL2; PG=+50) was −5.85 log10M. The “Log10 GI50 or LC50 (per conditions)” value (SK-MEL2; Table IV (LC50, PG=−50)) was >−4.00 log10M, the “Log10 GI50 (PG=+50) or LC50 (PG=−50)” value (SNB-75; PG=+50) was −5.84 log10M and the “Log10 GI50 (PG=+50) or LC50 (PG=−50)” value (SNB-75; Table IV (LC50, PG=−50)) was >−4.00 log10M. For the same compound, the Log10TGI (HL-60(TB); PG=0) was −6.71 log10M, the Log10GI50 (HL-60(TB); PG=+50) was −6.71 log10M and the Log10GI50 (HL-60(TB); Table IV (LC50, PG=−50)) was >−4.00 log10M. The Log10TGI (LOX IMVI; PG=0) was >−4.00 log10M, the Log10GI50 (LOX IMVI; PG=+50) was −5.79 log10M and the Log10GI50 (LOX IMVI; Table IV (LC50, PG=−50)) was >−4.00 log10M. For the same compound, the Log10TGI (UACC-62; PG=0) was >−4.00 log10M, the Log10GI50 (UACC-62; PG=+50) was −4.90 log10M and the Log10GI50 (UACC-62; Table IV (LC50, PG=−50)) was >−4.00 log10M. For the same compound, the Log10TGI (NCI-H522; PG=0) was >−4.00 log10M, the Log10GI50 (NCI-H522; PG=+50) was −6.07 log10M and the Log10GI50 (NCI-H522; Table IV (LC50, PG=−50)) was >−4.00 log10M. The Log10TGI (UACC-257; PG=0) was >−4.00 log10M, the “Log10 GI50 (PG=+50) or Log10 LC50 (PG=−50)” value (UACC-257; PG=+50) was −6.02 log10M and the “Log10 GI50 (PG=+50) or Log10 LC50 (PG=−50)” value (UACC-257; Table IV (LC50, PG=−50)) was >−4.00 log10M. For the same compound, the Log10TGI (IGROVI; PG=0) was >−4.00 log10M, the Log10GI50 (IGROVI; PG=+50) was −4.55 log10M and the Log10GI50 (IGROVI; Table IV (LC50, PG=−50)) was >−4.00 log10M. The Log10TGI (HT29; PG=0) was >−4.00 log10M, the Log10GI50 (HT29; PG=+50) was −5.90 log10M and the Log10GI50 (HT29; Table IV (LC50, PG=−50)) was >−4.00 log10M. The Log10TGI (HCT-116; PG=0) was >−4.00 log10M, the “Log10 GI50 (PG=+50) or Log10 LC50 (PG=−50), as given per row condition” value (HCT-116; PG=+50) was −6.12 log10M and the “Log10 GI50 (PG=+50) or Log10 LC50 (PG=−50), as given per row condition” value (HCT-116; Table IV (LC50, PG=−50)) was >−4.00 log10M.

Source: patent US20020055528A1, “Artemisinin analogs having antimalarial, antiproliferative, and antitumor activities and chemoselective methods of making the same” (priority 1999, published 2002)
